Data from patent US20060117411A1, “Enhancing plant pathogen resistance via increasing BiP levels” (priority 1998, published 2006).

Tests used:
[1] = tested on: BiP protein levels; test: SA spraying of tobacco plants, protein gel blot of BiP; format: in vivo, Nicotiana tabacum; details: sprayed with SA 5 mM
Protocol: It has been shown that SA is involved in the induction of PR genes (reviewed by Malamy and Klessig, 1992) and that this signal molecule also induces the expression of ER chaperones (Denecke et al, 1995). We wanted to investigate whether ER chaperone induction is a consequence of the high synthesis rates of PR genes and used BiP as a model system. Tobacco plants were sprayed with SA (5 mM) and the exact timing of the SA-mediated induction of PR-gene PRI was compared to that of BiP. PR1 was chosen as a representative marker for SA-mediated induction of PR genes as its response to SA is faster and more pronounced than that of acidic chitinase, basic chitinase and basic β-1.3 glucanase (Vidal et al, 1997). […] In contrast SA-induced transcription of PR1 starts only after 6-8 hours and continues to accumulate upto 16 hours after treatment. At this time-point, BiP mRNA levels start to decrease again. […]
Fully expanded leaves were collected and quickly frozen in liquid nitrogen. […] Protein concentrations were determined using Bio-Rad protein assay reagent
Proteins in SDS-polyacrylamide gels were transferred onto a nitrocellulose membrane and then blocked with PBS, 0.5% Tween 20, and 5% milk powder for 1 hr. […] Detection of antigen-antibody complexes was performed with enhanced chemiluminescence (ECL, Amersham Corp), and the images were recorded on film.

[2] = tested on: tobacco protoplasts (GUS, cell viability); test: Transient expression in tobacco protoplasts (pNL200), GUS internal marker; format: cell-based, Nicotiana tabacum; details: tunicamycin 20 μg/mL, 20 hr
Text: We have established a model system based on the comparison of protein biosynthesis in the cytosol and on the rough ER using transient expression. A plasmid was constructed (pNL200, FIG. 12A) containing two genes, one encoding the secreted barley α-amylase (Rogers, 1985) and the other encoding the cytosolic marker β-glucuronidase (GUS; Jefferson et al., 1987). α-Amylase was used to measure secretory protein biosynthesis, and GUS was used to control for transfection efficiency and overall cell viability. We compared cells under normal culture conditions with cells subjected to ER stress by treatment with tunicamycin. […]
Tobacco leaf protoplasts (from transformed or untransformed plants) were prepared, and electroporation experiments were performed as previously described (Denecke and Vitale, 1995), with minor modifications to the electroporation conditions. […] After 24 or 48 hr, the protoplasts were analysed by enzymatic assay or by protein gel blotting. […]
GUS activity in protoplasts was measured with a […] assay. six mililiters of floated protoplasts were diluted in TEX buffer (B5 salts, 250 mg/L NH4NO3, 750 mg/L CaCl2, 500 mg/L MES, and 0.4 M sucrose, pH 5.7) and were spun down by the addition of 20 mL of 250 mM NaCl. […] The absorbance was measured at 415 nm against a blank containing stop buffer that had been incubated at 37° C. for the duration of the reaction time.

Row | Compound | time of induction after which a significant increase of BiP protein levels is noticeable [1] [h] | cell viability monitored with the internal marker GUS [2]
1 | O=C(O)c1ccccc1O [SA, Salicylic Acid] | 4 to 6 | –
2 | tunicamycin | – | does not affect cell viability
